Patent US20260234163A1, “NOVEL COMPOUNDS AND USES THEREOF” (ACELINK THERAPEUTICS, INC., priority 2023, published 2026)
Like-named read-outs stand apart in the source and are kept apart here.

What was measured:
[1] = 21-membered ring

Question: Which ring closure, yield after HPLC ([1]; the molecule shown is the open-chain precursor, other bond, K2CO3 (microwave), DMF, 10.2 mM, 130.0 °C, 2 steps) does the source give for `CCOC(=O)CC(c1ccc2c(c1)CNCC2)c1ccc2c(nnn2CCCCCN2CCN(C(=O)Oc3ccc([N+](=O)[O-])cc3)CC2)c1C` (stereo not drawn) here?
Answer: Its ring closure, yield after HPLC is 72%.

Question: With `CCOC(=O)C[C@@H](c1ccc2c(c1)CNCC2)c1ccc2c(nnn2CCCOCC2CCN(C(=O)Oc3c(F)c(F)c(F)c(F)c3F)CC2)c1C` as the compound, how does the ring closure, yield after HPLC ([1]; the molecule shown is the open-chain precursor, other bond, K2CO3/microwave, DMF, 24.7 mM, 120.0 °C) read?
Answer: The ring closure, yield after HPLC was 20.9%.

Question: For `CCOC(=O)CC1c2cc(C)c3c(c2)CN(CC3)C(=O)c2ccc(cc2)COCCCn2nnc3c(C)c1ccc32` (stereo not drawn), which ring closure, isolated yield (from CCOC(=O)CC(c1cc(C)c2c(c1)CNCC2)c1ccc2c(nnn2CCCOCc2ccc(C(=O)O)cc2)c1C, amide bond, 21-membered ring, HATU/DIEA, DMF, 131.5 mM, 20.0 °C, 2.0 h) is on record?
Answer: Its ring closure, isolated yield is 77.9%.

Question: Which ring closure, yield after HPLC ([1]; from C=CCOC1CCN(S(=O)(=O)N2CCc3ccc(C(CC(=O)OCC)c4ccc5c(nnn5C/C=C/C)c4C)cc3C2)CC1, rcm bond, Grubbs catalyst, DCM, 6.2 mM, 40.0 °C, 19.0 h) does the source give for `CCOC(=O)CC1c2ccc3c(c2)CN(CC3)S(=O)(=O)N2CCC(CC2)OCC=CCn2nnc3c(C)c1ccc32` (stereo not drawn) here?
Answer: The ring closure, yield after HPLC was 89.4%.

Question: For `CCOC(=O)CC1c2ccc3c(c2)CN(CC3)C(=O)C2CCN(CCCCCn3nnc4c(C)c1ccc43)CC2` (stereo not drawn), which ring closure, isolated yield (from CCOC(=O)CC(c1ccc2c(c1)CNCC2)c1ccc2c(nnn2CCCCCN2CCC(C(=O)O)CC2)c1C, amide bond, 21-membered ring, HATU/DIEA, DMF, 96.0 mM, 0.0 °C) is on record?
Answer: Its ring closure, isolated yield is 79.5%.

Question: For `CCOC(=O)CC1c2ccc3c(c2)CN(CC3)C(=O)C2CCN(CCOCCn3nnc4c(C)c1ccc43)CC2` (stereo not drawn), which ring closure, isolated yield (from CCOC(=O)CC(c1ccc2c(c1)CNCC2)c1ccc2c(nnn2CCOCCN2CCC(C(=O)O)CC2)c1C, amide bond, 21-membered ring, HATU/DIEA, DMF, 142.0 mM, 25.0 °C) is on record?
Answer: The ring closure, isolated yield was 38.2%.

Question: With `CCOC(=O)CC1c2cccc(c2)CN(C)C(=O)c2ccc(cc2)COCCCn2nnc3c(C)c1ccc32` (stereo not drawn) as the compound, how does the ring closure, isolated yield (from CCOC(=O)CC(c1cccc(CNC)c1)c1ccc2c(nnn2CCCOCc2ccc(C(=O)O)cc2)c1C, amide bond, 21-membered ring, HATU/DIEA, DMF, 73.0 mM, 25.0 °C) read?
Answer: The ring closure, isolated yield was 58.2%.

Question: Which ring closure, isolated yield (from CCOC(=O)CC(c1ccc2c(c1)CN(S(=O)(=O)c1ccc(O)cc1)CC2)c1ccc2c(nnn2CCOCCO)c1C, ether bond, 22-membered ring, DEAD/PPh3, DCM/THF, 28.8 mM, 20.0 °C, 4.0 h) does the source give for `CCOC(=O)CC1c2ccc3c(c2)CN(CC3)S(=O)(=O)c2ccc(cc2)OCCOCCn2nnc3c(C)c1ccc32` (stereo not drawn) here?
Answer: Its ring closure, isolated yield is 73.6%.

Question: With `Cc1c2ccc3c1nnn3CCOCCN1CCN(CC1)C(=O)c1ccc3ccc(cc3c1)C2CC(=O)OC(C)(C)C` (stereo not drawn) as the compound, how does the ring closure, isolated yield (from Cc1c(C(CC(=O)OC(C)(C)C)c2ccc3ccc(C(=O)O)cc3c2)ccc2c1nnn2CCOCCN1CCNCC1, amide bond, 21-membered ring, HATU/DIEA, DMF, 72.0 mM, 25.0 °C, 19.0 h) read?
Answer: The ring closure, isolated yield was 19.5%.

Question: With `COC(=O)CC1c2ccc3c(nnn3CCOCCOC3CCN(CC3)C(=O)c3ccc4c(c3)CN1CC4)c2C` (stereo not drawn) as the compound, how does the ring closure, isolated yield (from COC(=O)CC(c1ccc2c(nnn2CCOCCOC2CCNCC2)c1C)N1CCc2ccc(C(=O)O)cc2C1, amide bond, 22-membered ring, HATU/DIEA, DMF, 35.4 mM, 20.0 °C, 2.0 h) read?
Answer: Its ring closure, isolated yield is 90.4%.

Question: Which ring closure, isolated yield (from C=CCOc1ccc(S(=O)(=O)N2CCc3ccc(C(CC(=O)OCC)c4ccc5c(nnn5C/C=C/C)c4C)cc3C2)cc1, rcm bond, 21-membered ring, Grubbs II, DCM, 40.0 mM, 25.0 °C, 19.0 h) does the source give for `CCOC(=O)CC1c2ccc3c(c2)CN(CC3)S(=O)(=O)c2ccc(cc2)OCC=CCn2nnc3c(C)c1ccc32` (stereo not drawn) here?
Answer: The ring closure, isolated yield was 12.9%.

Question: Which ring closure, isolated yield (from CCOC(=O)CC(c1ccc(C)c(CNC)c1)c1ccc2c(nnn2CCCOCc2ccc(C(=O)O)cc2)c1C, amide bond, 21-membered ring, HATU/DIEA, DMF, 46.6 mM, 20.0 °C, 2.0 h) does the source give for `CCOC(=O)CC1c2ccc(C)c(c2)CN(C)C(=O)c2ccc(cc2)COCCCn2nnc3c(C)c1ccc32` (stereo not drawn) here?
Answer: The ring closure, isolated yield was 95.2%.
